Assay results: patent US8367349B2, “Methods for identifying modulators of LRRK2” (Medical Research Council, priority 2010, dated 2013)
pIC50: −log10 of the molar value.

Experiments:
[1] = target: T1, GFP-LRRK2 (Homo sapiens, UniProt Q5S007); experiment: Kinase inhibitor panel: Ser910/Ser935 phosphorylation in HEK293 cells stably expressing GFP-LRRK2; type: cell-based; conditions: HEK293 GFP-LRRK2, 90 minutes, inhibitors at the higher limits of concentrations routinely employed
T1 construct: immunoprecipitates of stably expressed full length GFP-LRRK2; expressed in transfected cells
T1 sequence (Q5S007 whole entry): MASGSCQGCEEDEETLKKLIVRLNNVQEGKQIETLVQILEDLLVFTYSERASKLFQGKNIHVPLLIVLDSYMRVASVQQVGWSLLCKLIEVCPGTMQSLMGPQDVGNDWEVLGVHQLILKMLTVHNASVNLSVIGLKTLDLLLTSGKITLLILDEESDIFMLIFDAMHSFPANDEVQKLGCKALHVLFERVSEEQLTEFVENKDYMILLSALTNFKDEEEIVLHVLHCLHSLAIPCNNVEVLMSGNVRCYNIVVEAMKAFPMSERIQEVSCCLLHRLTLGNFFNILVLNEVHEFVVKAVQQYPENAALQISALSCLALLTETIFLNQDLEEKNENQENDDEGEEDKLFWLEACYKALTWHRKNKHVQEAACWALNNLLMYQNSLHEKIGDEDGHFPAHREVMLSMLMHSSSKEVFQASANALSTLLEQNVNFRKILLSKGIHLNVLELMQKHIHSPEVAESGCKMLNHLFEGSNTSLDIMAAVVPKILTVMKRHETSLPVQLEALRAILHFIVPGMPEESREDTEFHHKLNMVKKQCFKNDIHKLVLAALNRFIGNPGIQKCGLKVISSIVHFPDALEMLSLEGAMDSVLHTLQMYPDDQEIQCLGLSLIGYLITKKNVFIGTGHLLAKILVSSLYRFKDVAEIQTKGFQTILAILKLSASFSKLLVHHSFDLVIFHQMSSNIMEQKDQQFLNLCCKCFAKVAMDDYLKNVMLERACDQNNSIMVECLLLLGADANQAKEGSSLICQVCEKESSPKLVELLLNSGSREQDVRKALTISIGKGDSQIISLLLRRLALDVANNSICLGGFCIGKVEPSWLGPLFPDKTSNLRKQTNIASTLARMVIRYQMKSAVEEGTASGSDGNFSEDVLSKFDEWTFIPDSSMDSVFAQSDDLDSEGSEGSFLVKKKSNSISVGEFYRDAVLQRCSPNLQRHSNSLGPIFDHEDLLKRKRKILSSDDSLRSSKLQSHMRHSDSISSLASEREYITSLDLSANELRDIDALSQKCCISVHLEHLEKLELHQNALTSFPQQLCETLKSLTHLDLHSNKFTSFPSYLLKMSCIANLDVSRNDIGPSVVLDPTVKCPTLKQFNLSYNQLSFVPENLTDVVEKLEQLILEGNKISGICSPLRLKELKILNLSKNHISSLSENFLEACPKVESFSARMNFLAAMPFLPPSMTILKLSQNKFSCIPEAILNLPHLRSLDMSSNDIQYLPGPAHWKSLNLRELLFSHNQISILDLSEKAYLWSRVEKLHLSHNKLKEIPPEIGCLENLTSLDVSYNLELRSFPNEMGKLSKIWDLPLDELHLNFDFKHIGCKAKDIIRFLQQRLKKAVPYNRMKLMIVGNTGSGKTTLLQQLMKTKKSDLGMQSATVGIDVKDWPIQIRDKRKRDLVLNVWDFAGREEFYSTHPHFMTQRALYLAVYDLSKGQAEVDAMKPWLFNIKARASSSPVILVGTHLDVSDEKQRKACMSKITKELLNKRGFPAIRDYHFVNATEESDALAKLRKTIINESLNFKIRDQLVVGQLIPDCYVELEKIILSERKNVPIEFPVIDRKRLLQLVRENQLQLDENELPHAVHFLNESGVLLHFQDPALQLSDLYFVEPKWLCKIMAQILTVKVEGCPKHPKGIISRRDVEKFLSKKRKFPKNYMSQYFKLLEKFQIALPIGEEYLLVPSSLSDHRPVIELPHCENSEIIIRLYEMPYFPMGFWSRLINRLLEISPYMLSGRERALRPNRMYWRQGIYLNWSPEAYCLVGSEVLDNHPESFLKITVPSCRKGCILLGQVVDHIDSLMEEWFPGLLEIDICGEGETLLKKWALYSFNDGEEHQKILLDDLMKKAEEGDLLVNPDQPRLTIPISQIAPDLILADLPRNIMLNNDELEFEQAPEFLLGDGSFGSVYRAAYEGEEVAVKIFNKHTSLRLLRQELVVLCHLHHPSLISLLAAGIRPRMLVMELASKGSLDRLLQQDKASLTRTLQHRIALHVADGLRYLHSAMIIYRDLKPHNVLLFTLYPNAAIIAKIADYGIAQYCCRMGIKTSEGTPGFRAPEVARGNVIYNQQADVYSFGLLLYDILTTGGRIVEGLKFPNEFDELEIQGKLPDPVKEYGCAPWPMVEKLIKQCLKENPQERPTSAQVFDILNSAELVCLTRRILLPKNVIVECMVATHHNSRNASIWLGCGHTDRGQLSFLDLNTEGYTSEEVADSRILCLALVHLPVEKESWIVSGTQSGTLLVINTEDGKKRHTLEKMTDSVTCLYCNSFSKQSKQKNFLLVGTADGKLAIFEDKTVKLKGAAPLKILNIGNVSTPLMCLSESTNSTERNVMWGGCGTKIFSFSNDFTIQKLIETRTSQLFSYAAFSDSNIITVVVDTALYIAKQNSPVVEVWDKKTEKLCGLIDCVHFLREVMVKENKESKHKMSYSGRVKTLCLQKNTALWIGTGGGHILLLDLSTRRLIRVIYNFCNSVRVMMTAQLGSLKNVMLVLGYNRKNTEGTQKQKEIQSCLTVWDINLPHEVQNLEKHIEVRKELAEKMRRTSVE
Description: FIG. 16. HEK-293 stably expressing GFP-LRRK2 were treated with DMSO, or the following inhibitors dissolved in DMSO, at the indicated concentration for 90 minutes. […] Total LRRK2 was assessed by GFP immunoblot. The immunoblots shown are representative of 2 independent experiments. Cell transfections were performed by the polyethylenimine method. Where inhibitors are utilized, they were dissolved in DMSO and used at the indicated concentrations with an equivalent volume of DMSO used as a control. The final concentration of DMSO in the culture medium was never more than 0.1% (v/v). Inhibitors were added to the culture medium for the indicated times before lysis. Per 15 cm dish, HEK 293 cells were lysed with 1.0 ml and 3T3 cells were lysed with 0.6 ml of lysis buffer supplemented with the indicated detergent and clarified by centrifugation at 16,000×g at 4° C. for 10 minutes. After induction and inhibitor treatment, T-REx-GFP expressing cells were lysed at room temperature with SDS lysis buffer after washing with PBS. […] Protein concentrations were determined using the Bradford method with BSA as the standard. […] Immune complexes were washed twice with lysis buffer supplemented with 0.3 M NaCl and twice with Buffer A. Precipitates were either used as a source of kinase or immediately analyzed by immunoblot. […] DIG 14-3-3 was detected with HRP labelled anti-DIG Fab fragments (Roche).

[2] = target: T2, endogenous LRRK2 (Mus musculus, UniProt Q5S006); experiment: Ser910/Ser935 phosphorylation and 14-3-3 binding of endogenous LRRK2 in Swiss 3T3 cells; type: cell-based; conditions: 90 minutes
T2 construct: endogenous in cells; host or cells: Swiss 3T3 cells
T2 sequence (Q5S006 whole entry): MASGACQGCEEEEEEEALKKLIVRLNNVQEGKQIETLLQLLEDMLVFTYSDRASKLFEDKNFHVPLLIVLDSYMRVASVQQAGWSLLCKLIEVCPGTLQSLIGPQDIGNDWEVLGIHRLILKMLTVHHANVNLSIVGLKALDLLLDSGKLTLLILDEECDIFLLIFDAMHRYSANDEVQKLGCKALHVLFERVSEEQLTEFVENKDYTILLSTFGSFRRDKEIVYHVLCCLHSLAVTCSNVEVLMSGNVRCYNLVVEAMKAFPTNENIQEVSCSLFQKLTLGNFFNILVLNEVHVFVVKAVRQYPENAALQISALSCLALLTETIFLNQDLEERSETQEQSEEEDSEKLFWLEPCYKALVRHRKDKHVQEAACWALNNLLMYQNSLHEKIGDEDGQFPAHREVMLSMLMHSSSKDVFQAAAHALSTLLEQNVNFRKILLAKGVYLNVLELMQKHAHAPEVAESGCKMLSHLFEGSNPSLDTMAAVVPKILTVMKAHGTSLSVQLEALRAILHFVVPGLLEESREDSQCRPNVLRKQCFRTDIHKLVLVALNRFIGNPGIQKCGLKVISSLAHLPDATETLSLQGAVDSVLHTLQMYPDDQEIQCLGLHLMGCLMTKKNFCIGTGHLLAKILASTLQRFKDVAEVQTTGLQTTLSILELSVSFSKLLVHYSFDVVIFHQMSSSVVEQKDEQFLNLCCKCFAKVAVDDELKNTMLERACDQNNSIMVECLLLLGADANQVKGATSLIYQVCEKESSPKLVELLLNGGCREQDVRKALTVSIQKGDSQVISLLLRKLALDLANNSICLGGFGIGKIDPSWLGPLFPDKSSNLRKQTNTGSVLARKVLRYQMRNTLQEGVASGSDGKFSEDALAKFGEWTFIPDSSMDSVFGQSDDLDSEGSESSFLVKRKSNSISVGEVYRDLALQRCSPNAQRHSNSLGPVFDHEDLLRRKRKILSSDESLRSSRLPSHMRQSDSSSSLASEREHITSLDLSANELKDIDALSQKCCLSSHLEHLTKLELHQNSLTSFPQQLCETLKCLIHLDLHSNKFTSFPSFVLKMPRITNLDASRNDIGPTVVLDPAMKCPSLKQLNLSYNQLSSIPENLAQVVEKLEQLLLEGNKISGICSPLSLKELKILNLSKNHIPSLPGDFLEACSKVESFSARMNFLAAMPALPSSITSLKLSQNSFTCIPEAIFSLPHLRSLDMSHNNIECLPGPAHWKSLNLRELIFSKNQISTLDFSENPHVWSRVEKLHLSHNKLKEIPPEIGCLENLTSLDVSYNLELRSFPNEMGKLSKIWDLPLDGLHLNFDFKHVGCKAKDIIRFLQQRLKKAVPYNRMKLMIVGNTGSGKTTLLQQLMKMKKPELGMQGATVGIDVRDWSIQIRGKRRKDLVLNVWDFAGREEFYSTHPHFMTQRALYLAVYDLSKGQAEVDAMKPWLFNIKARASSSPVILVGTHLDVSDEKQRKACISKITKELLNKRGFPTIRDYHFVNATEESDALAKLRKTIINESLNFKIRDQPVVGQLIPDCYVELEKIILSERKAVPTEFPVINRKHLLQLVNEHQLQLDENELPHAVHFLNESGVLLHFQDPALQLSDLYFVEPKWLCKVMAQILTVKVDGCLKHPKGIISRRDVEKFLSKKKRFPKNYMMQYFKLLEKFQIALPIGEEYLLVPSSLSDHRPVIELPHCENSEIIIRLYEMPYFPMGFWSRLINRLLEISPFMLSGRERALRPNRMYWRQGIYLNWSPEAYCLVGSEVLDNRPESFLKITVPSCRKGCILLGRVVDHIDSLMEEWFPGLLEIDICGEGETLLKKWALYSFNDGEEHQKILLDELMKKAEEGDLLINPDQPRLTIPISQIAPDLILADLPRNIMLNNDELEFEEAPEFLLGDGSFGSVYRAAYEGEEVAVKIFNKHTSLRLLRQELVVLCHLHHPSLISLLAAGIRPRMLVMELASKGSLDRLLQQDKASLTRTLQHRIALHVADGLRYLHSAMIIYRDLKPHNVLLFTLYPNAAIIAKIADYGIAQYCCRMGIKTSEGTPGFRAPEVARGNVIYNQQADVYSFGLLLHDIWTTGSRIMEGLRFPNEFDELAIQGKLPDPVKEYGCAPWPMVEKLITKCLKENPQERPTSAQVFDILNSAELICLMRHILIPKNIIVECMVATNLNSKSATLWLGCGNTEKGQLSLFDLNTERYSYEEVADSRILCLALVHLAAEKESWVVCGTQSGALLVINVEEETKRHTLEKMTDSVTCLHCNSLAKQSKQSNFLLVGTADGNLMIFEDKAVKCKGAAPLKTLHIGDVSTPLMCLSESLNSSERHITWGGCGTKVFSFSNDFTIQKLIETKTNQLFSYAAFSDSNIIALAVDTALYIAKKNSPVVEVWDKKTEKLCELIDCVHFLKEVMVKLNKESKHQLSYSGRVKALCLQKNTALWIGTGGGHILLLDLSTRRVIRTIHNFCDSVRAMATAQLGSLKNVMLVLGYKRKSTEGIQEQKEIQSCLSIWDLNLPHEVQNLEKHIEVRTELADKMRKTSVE
Description: (§1) Cell transfections were performed by the polyethylenimine method. Where inhibitors are utilized, they were dissolved in DMSO and used at the indicated concentrations with an equivalent volume of DMSO used as a control. The final concentration of DMSO in the culture medium was never more than 0.1% (v/v). Inhibitors were added to the culture medium for the indicated times before lysis. Per 15 cm dish, HEK 293 cells were lysed with 1.0 ml and 3T3 cells were lysed with 0.6 ml of lysis buffer supplemented with the indicated detergent and clarified by centrifugation at 16,000×g at 4° C. for 10 minutes. After induction and inhibitor treatment, T-REx-GFP expressing cells were lysed at room temperature with SDS lysis buffer after washing with PBS. SDS lysates were boiled and sonicated to reduce viscosity. When not used immediately, all lysate supernatants were snap frozen in liquid nitrogen and stored at −80° C. until use. Protein concentrations were determined using the Bradford method with BSA as the standard.
Immunological procedures. Cell lysates (10-30 μg) were resolved by electrophoresis on SDS polyacrylamide gels or Novex 4-12% gradient gels, and electroblotted to nitrocellulose membranes. Membranes were blocked with 5% skimmed milk (w/v) in 50 mM Tris/HCl, pH 7.5, 0.15 M NaCl and 0.1% (v/v) Tween (TBST Buffer). […]

[3] = target: T3, LRRK2[G2019S] (Homo sapiens, UniProt Q5S007, G2019S); experiment: Ser910/Ser935 phosphorylation and 14-3-3 binding of Flag-LRRK2[G2019S] in HEK-293 cells; type: cell-based
T3 construct: expressed in transfected cells; host or cells: HEK-293 cells, transient transfection
T3 sequence (Q5S007 whole entry G2019S): as the sequence (Q5S007 whole entry) above, with G2019S counted along it
Description: (§2) FIG. 5. […] Cells were lysed in lysis buffer supplemented with 0.5% NP40 and […] and subjected to anti-FLAG immunoprecipitation. Immunoprecipitates were resolved on 4-12% Novex SDS-polyacrylamide gels and subjected to immunoblot with FLAG (total LRRK2), anti-pS910, anti-pS935 as well as a 14-3-3 overlay assay.
as §1
(§3) Immunological procedures. […]

[4] = target: T4, LRRK2[A2016T+G2019S] (Homo sapiens, UniProt Q5S007, A2016T/G2019S); experiment: Ser910/Ser935 phosphorylation and 14-3-3 binding of drug resistant LRRK2[A2016T+G2019S] in HEK-293 cells; type: cell-based; conditions: HEK-293 over-expressing LRRK2[A2016T+G2019S], 90 minutes
T4 construct: expressed in transfected cells; host or cells: HEK-293 cells, transient transfection
T4 sequence (Q5S007 whole entry A2016T/G2019S): as the sequence (Q5S007 whole entry) above, with A2016T, G2019S counted along it
Description: as §2, §1, §3

[5] = target: T5, wild type FLAG-LRRK2 (Homo sapiens, UniProt Q5S007); experiment: Ser910/Ser935 dephosphorylation of wild type FLAG-LRRK2 in 293 cells; type: cell-based
T5 construct: overexpressed full length human FLAG-LRRK2 expressed in HEK-293 cells; expressed in transfected cells; host or cells: HEK-293 cells, transient transfection
Description: as §2, §1, §3

[6] = test system: GFP-LRRK2 or GFP-LRRK2[G2019S]; experiment: Cytoplasmic localisation of GFP-LRRK2 or GFP-LRRK2[G2019S] in T-REx cells (fluorescence microscopy); type: cell-based, human; conditions: drug sensitive GFP-LRRK2 or GFP-LRRK2[G2019S], 90 min before fixation
Description: (§4) FIG. 14. Disruption of 14-3-3 binding induces accumulation of LRRK2 within cytoplasmic aggregates. A.) Stable-inducible T-REx cells lines harboring the indicated forms of LRRK2 were induced for 24 hours with 0.1 μg/ml doxycycline to induce expression of GFP-LRRK2. The indicated cell lines were treated in the absence or presence of the indicated dose of H-1152 for 90 min prior to fixation. Representative fluorescent micrographs of GFP-LRRK2 localisation are shown. Cytoplasmic aggregates of GFP-LRRK2 are indicated with white arrowheads. B.) Fluorescent micrographs representative of cultures of the indicated forms GFP-LRRK2 are shown. Cytoplasmic aggregates of GFP-LRRK2 are indicated with white arrowheads. Localisation analyses were performed in duplicate, and similar results observed in two independent experiments.
(§5) Fluorescence Microscopy. HEK-293 Flp-in T-REx were purchased from Invitrogen and stable cells harbouring GFP tagged wild type and mutant forms of LRRK2 were generated using standard protocols. Cells were plated in 4-well glass bottom, CC2 coated chamber slides (Nunc). One day after plating, cells were induced with 0.1 μg/ml doxycycline and 24 hr later, cells were fixed in 4% paraformaldehyde buffered in phosphate buffered saline (purchased from USB, # 19943). […]

[7] = test system: LRRK2[A2016T] or LRRK2[A2016T+G2019S]; experiment: Cytoplasmic localisation of drug resistant GFP-LRRK2[A2016T] or [A2016T+G2019S] in T-REx cells; type: cell-based, human
Description: as §4, §5

[8] = target: T2, endogenous LRRK2; experiment: Kinase activity of endogenous LRRK2 immunoprecipitated from inhibitor-treated Swiss 3T3 cells after wash-out; type: biochemical; conditions: 30 μM H1152 or 10 μM sunitinib for 2 h, inhibitor washed off, 20 μM Nictide
Description: Immunoprecipitates were washed with lysis buffer containing 0.5 M NaCl to remove inhibitor and were then incubated in kinase buffer containing 20 μM Nictide with the presence or absence of magnesium-ATP for 30 min. Following incubation, immunoprecipitates were centrifuged at 8000 rpm for 0.5 min and the supernatant spotted on to P81 paper for measurement of LRRK2 kinase activity. Sample buffer was added to the pelleted beads and LRRK2 S910 and S935 phosphorylation was quantified following immunoblot analysis. A membrane was also subjected to autoradiography to assess LRRK2 autophosphorylation.
LRRK2 Immunoprecipitation Kinase assays. Peptide Kinase Assays were set up in a total volume of 50 μl with immunoprecipitated LRRK2 as a source of kinase, in 50 mM Tris pH 7.5, 0.1 mM EGTA, 10 mM MgCl2 and 0.1 mM [γ-^32P]ATP (˜500-1000 cpm/pmol) in the presence of 30 μM Nictide peptide substrate. Reactions were terminated by applying 30 μl of the reaction mixture on to P81 phosphocellulose paper and immersion in 50 mM phosphoric acid. After extensive washing, reaction products were quantitated by Cerenkov counting. One half of the remaining reaction was subjected to immunoblot analysis using the Odyssey LICOR system and specific activity is represented as cpm/LICOR independent density values.

[9] = target: LRRK2 (Homo sapiens, UniProt Q5S007); conditions: wild type LRRK2, in vitro; read-out: IC50 for inhibition of LRRK2; cited from earlier work
Sequence of LRRK2 (Q5S007 whole entry): as the sequence (Q5S007 whole entry) above

[10] = target: LRRK2[Ala2016Thr] (Homo sapiens, UniProt Q5S007, A2016T); conditions: relative to normally sensitive LRRK2; cited from earlier work

SMILES	dephosphorylation of Ser910/Ser935 [1]	concentration inducing almost complete dephosphorylation of Ser910 and Ser935 and loss of 14-3-3 binding [2] [µM]	dephosphorylation of endogenous LRRK2 at Ser910 and Ser935 with concomitant reduction in 14-3-3 binding ([2]; increasing amounts of inhibitor)	potency in inducing dephosphorylation and impairing 14-3-3 binding: LRRK2[G2019S] compared with wild type LRRK2 ([3]; HEK-293 cells, Flag-LRRK2 forms)	dephosphorylation of LRRK2[G2019S] at Ser910 and Ser935 and disruption of 14-3-3 binding ([3]; HEK-293 over-expressing LRRK2[G2019S], 90 minutes)	inhibition of Ser910 or Ser935 phosphorylation or 14-3-3 binding of drug resistant mutant [4]	potency at inducing dephosphorylation of wild type FLAG-LRRK2 compared with endogenous LRRK2 in Swiss 3T3 cells [5]	accumulation of LRRK2 within cytoplasmic pools [6]	accumulation of LRRK2 within cytoplasmic pools [7]	endogenous LRRK2 kinase activity after treatment of cells [8]	pIC50 [9]	fold less sensitive: drug resistant LRRK2[Ala2016Thr] mutant [10] [fold]
N#CC(c1ccnc(NCCc2cccnc2)n1)c1nc2ccccc2s1 (stereo not drawn) [AS601245]	did not induce dephosphorylation											
Cc1cncc2cccc(S(=O)(=O)N3CCCNC[C@@H]3C)c12 [H-1152]		10 to 30	dose dependent dephosphorylation	more potent	dose-dependent dephosphorylation	neither H-1152 nor sunitinib significantly inhibited	similar	marked accumulation of LRRK2 within cytoplasmic pools	no cytoplasmic pool accumulation	did not affect	6.82	32
